Experimental data from patent publication US11052092B2, “N-{[2-(piperidin-1-yl)phenyl](phenyl)methyl}-2-(3-oxo-3,4-dihydro-2H-1,4-benzoxazin-7-yl)acetamide derivatives and related compounds as ROR-gamma modulators for treating autoimmune diseases” (Genfit, priority 2017, dated 2021).

Legend:
human RORγt = target: T1, human RORγt (Homo sapiens, UniProt P51449); experiment: RORE Luciferase/RORγt transactivation assay; assay type: cell-based; settings: COS-7 cells transfected with human IL-17 promoter luciferase reporter and RORγt plasmid; 20 h with compound; read-out: IC50, RORγt activity inhibition
T1 construct: the full-length cDNA of human RORγt; expressed in transfected cells; host or cells: COS-7 (monkey kidney)
T1 sequence (P51449 1-497 isoform P51449-2): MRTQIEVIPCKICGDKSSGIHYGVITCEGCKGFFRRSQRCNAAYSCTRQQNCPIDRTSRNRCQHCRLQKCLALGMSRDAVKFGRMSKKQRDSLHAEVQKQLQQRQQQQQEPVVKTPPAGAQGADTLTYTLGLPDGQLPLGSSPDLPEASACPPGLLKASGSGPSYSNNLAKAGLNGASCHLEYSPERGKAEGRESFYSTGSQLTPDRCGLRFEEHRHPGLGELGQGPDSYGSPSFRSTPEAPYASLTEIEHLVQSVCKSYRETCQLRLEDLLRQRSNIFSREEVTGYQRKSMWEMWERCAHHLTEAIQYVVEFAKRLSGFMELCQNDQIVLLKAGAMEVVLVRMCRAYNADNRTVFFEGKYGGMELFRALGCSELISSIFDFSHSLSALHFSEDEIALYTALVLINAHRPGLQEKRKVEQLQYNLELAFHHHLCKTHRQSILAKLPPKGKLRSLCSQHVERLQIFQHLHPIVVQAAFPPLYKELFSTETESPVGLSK
How it was run: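 COS-7 cells were transiently co-transfected with a human IL-17 promoter (RORE/CNS)–luciferase reporter and a RORγt expression plasmid, then seeded at 10000 cells/well in serum-free, phenol red-free DMEM. Compounds were added at 0.3% DMSO final. Luciferase was read with Steady-Glo, and IC50 and Emax were derived.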

[1] = target: T2, RORγt ligand-binding domain (RORγt-LBD) (Homo sapiens, UniProt P51449); experiment: Time-resolved FRET (TR-FRET) RORγt coactivator assay; settings: GST-RORγ-LBD, biotinylated RIP140 peptide, 2 hours at room temperature
T2 construct: 20 nM recombinantly expressed RORγ-LBD fused to GST
T2 sequence (P51449 269-508 limits assumed): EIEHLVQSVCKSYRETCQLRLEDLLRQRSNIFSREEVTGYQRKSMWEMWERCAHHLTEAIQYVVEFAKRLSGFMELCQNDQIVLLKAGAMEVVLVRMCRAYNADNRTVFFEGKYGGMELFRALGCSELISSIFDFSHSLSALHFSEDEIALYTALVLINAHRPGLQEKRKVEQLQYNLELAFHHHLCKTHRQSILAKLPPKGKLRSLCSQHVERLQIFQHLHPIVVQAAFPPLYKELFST
Description: Time-resolved FRET (TR-FRET) RORγt coactivator assay was used to identify RORγ modulator compounds with ligand-dependent coactivator displacement. The assay uses a d2-labeled anti-GST antibody, synthetic N-terminally biotinylated peptide which is derived from nuclear receptor coactivator protein RIP140, and a RORγt ligand-binding domain (RORγt-LBD) that is tagged with glutathione-S-transferase (GST). The influence of compounds on the RORγ-peptide interaction relies on the binding dependent energy transfer from a donor to an acceptor fluorophor attached to the binding partner of interest. […] For reduction of background from compound fluorescence, TR-FRET method makes use of generic fluorophore labels and time resolved detection.
The assays were done in a final volume of 20 μl in a 384 well plate in a CHAPS buffer (2 mM CHAPS; 1 mM DTT, 2 mM EDTA; 0.1% BSA), containing 20 nM recombinantly expressed RORγ-LBD fused to GST, 30 nM N-terminally biotinylated peptide, 1 nM streptavidin-terbium conjugate and 20 nM d2 labeled-anti-GST. Test compounds were diluted using 10 mM stock solution. The range of the final compound concentrations used in this test was from 0.3 nM to 30 μM (logarithmic scale). DMSO content of the samples was kept at 1%. The assay was equilibrated for 2 hours in the dark at room temperature in 384 well plates (Falcon). The signal was detected by an Ultra384 reader (TECAN). […] Compounds that promote coactivator displacement induce a concentration-dependent decrease in time-resolved fluorescent signal. Data were collected and analyzed using GraphPad Prism software (GraphPad Software V5.02, San Diego Calif. USA). IC50 in μM and Emax in % were reported for each compound.

[2] = system: Murine EL-4 lymphoma cell line overexpressing human RORγt; experiment: IL-17 secretion from EL4 murine lymphoma; assay type: cell-based; settings: Mus musculus; human RORγt-transfected EL4 cells, PMA (10 ng/mL) and ionomycin (1 μM), 24 h; read-out: IC50, IL-17 secretion inhibition
Method: Murine EL-4 lymphoma cell line overexpressing human RORγt was used in this functional assay to assess compound ability to inhibit IL-17 cytokine secretion.
EL-4 cells are maintained in a standard culture medium RPMI supplemented with 10% fetal calf serum, 1% sodium pyruvate, 1% essential amino acids and 1% antibiotics at 37° C. in a humidified atmosphere of 5% CO02 and 95% air. Culture medium was changed every 2 days. EL4 cells were transfected with a plasmid encoding hRORγt (sequence identical to published sequence NM 001001523). […] Briefly, 1 μg of DNA/1 million cells was served to transfect EL-4 cells. Cell/DNA suspension was transferred into certified cuvette and the electroporation of RORγt plasmid was carried out using appropriate Nucleofector® program.
Cells were seeded in 96 well plates at a density of 150000 cells/I well then treated with compounds of this invention at indicated concentrations and incubated for 24 hours at 37° C. in a humidified atmosphere of 5% C02 and 95% air. EL-4 cells were pretreated with test compounds (RORγ modulators) and stimulated with PMA (10 ng/mL) and ionomycin (1 μM final concentration) in the presence of test compound concentrations for additional 24 h at 37° C. in a humidified atmosphere of 5% C02 and 95% air. Subsequently, supernatants were collected (after centrifugation at 300 g for 10 minutes) to determine the concentrations of IL-17 by HTRF (CisBio, France) or ELISA (R&D Systems Europe) according to the manufacturer's protocols.

Row | SMILES | IC50 (human RORγt) | IC50 [1] | IC50 [2] | melting point
1 | Cc1ccc(C(NC(=O)Cc2ccc3[nH]c(=O)cc(C)c3c2)c2ccccc2)c(C)c1 (stereo not drawn) [Cpd. 9, N-[(2,4-dimethylphenyl)(phenyl)methyl]-2-(4-methyl-2-oxo-1,2-dihydroquinolin-6-yl)acetamide] | 1000 to 10000 nM | 10 to 100 nM | – | –
2 | Cc1ccc(C(NC(=O)Cc2ccc3c(c2)C(C)(C)C(=O)N3C)c2ccc(C)o2)c(N2CCCCC2)c1 (stereo not drawn) [Cpd. 40, N-{[4-methyl-2-(piperidin-1-yl)phenyl](5-methylfuran-2-yl)methyl}-2-(1,3,3-trimethyl-2-oxo-2,3-dihydro-1H-indol-5-yl)acetamide] | 100 to 1000 nM | 100 to 1000 nM | – | –
3 | Cc1ccc(C(NC(=O)Cc2ccc3c(ccn3CCC(=O)OC(C)(C)C)c2)c2ccc(C)o2)c(C)c1 (stereo not drawn) [Cpd. 99, tert-butyl 3-[5-({[(2,4-dimethylphenyl)(5-methylfuran-2-yl)methyl]carbamoyl}methyl)-1H-indol-1-yl]propanoate] | 100 to 1000 nM | 10 to 100 nM | – | –
4 | COc1ccc(C(NC(=O)Cc2ccc3c(c2)OC(C)(C)C(=O)N3)c2ccc(C)o2)c(N2CCOCC2)c1 (stereo not drawn) [Cpd. 30, 2-(2,2-dimethyl-3-oxo-3,4-dihydro-2H-1,4-benzoxazin-7-yl)-N-{[4-methoxy-2-(morpholin-4-yl)phenyl](5-methylfuran-2-yl)methyl}acetamide] | 1000 to 10000 nM | 100 to 1000 nM | – | –
5 | CC1(C)Oc2cc(CC(=O)NC(c3ccccc3)c3ccccc3N3CCCCC3)ccc2NC1=O (stereo not drawn) [Cpd. 19, 2-(2,2-dimethyl-3-oxo-3,4-dihydro-2H-1,4-benzoxazin-7-yl)-N-{phenyl[2-(piperidin-1-yl)phenyl]methyl}acetamide] | – | 1000 to 10000 nM | – | –
6 | Cc1ccc(C(NC(=O)Cc2ccc3c(c2)OC(C)(C)C(=O)N3)c2ccccc2)c(N2CCOCC2)c1 (stereo not drawn) [Cpd. 21, 2-(2,2-dimethyl-3-oxo-3,4-dihydro-2H-1,4-benzoxazin-7-yl)-N-{[4-methyl-2-(morpholin-4-yl)phenyl](phenyl)methyl}acetamide] | 100 to 1000 nM | 100 to 1000 nM | – | –
7 | O=C(Cc1ccc2c(c1)C(=O)C(=O)N2)NC(c1ccccc1)c1ccccc1N1CCCCC1 (stereo not drawn) [Cpd. 20, 2-(2,3-dioxo-2,3-dihydro-1H-indol-5-yl)-N-{phenyl[2-(piperidin-1-yl)phenyl]methyl}acetamide] | 1000 to 10000 nM | 1000 to 10000 nM | – | –
8 | Cc1ccc(C(NC(=O)Cc2ccc3c(ccn3CCC(=O)OC(C)(C)C)c2)c2ccc(C)o2)c(Br)c1 (stereo not drawn) [Cpd. 100, tert-butyl 3-[5-({[(2-bromo-4-methylphenyl)(5-methylfuran-2-yl)methyl]carbamoyl}methyl)-1H-indol-1-yl]propanoate] | 100 to 1000 nM | 100 to 1000 nM | – | –
9 | O=C(Cc1ccc2[nH]c(=O)c(=O)[nH]c2c1)NC(c1ccccc1)c1ccccc1N1CCCCC1 (stereo not drawn) [Cpd. 12, 2-(2,3-dioxo-1,2,3,4-tetrahydroquinoxalin-6-yl)-N-{phenyl[2-(piperidin-1-yl)phenyl]methyl}acetamide] | – | 1000 to 10000 nM | – | –
10 | Cc1ccc(C(NC(=O)Cc2cccc3c2CN(S(C)(=O)=O)C3)c2ccc(C)o2)c(N2CCCCC2)c1 (stereo not drawn) [Cpd. 50, 2-(2-methanesulfonyl-2,3-dihydro-1H-isoindol-4-yl)-N-{[4-methyl-2-(piperidin-1-yl)phenyl](5-methylfuran-2-yl)methyl}acetamide] | 100 to 1000 nM | 1000 to 10000 nM | – | –
11 | Cc1ccc(C(NC(=O)Cc2ccc3c(c2)C(=O)C(=O)N3C)c2ccc(C)o2)c(N2CCCCC2)c1 (stereo not drawn) [Cpd. 45, 2-(1-methyl-2,3-dioxo-2,3-dihydro-1H-indol-5-yl)-N-{[4-methyl-2-(piperidin-1-yl)phenyl](5-methylfuran-2-yl)methyl}acetamide] | 100 to 1000 nM | 100 to 1000 nM | – | –
12 | Cc1ccc(C(NC(=O)Cc2ccc3c(ccn3CCC(=O)O)c2)c2ccc(C)o2)c(N2CCCCC2)c1 (stereo not drawn) [Cpd. 97, 3-{5-[({[4-methyl-2-(piperidin-1-yl)phenyl](5-methylfuran-2-yl)methyl}carbamoyl)methyl]-1H-indol-1-yl}propanoic acid] | 10 to 100 nM | – | 100 to 1000 nM | 95 °C
13 | COc1ccc(C(NC(=O)Cc2ccc3c(ccn3CCC(=O)O)c2)c2ccc(C)o2)c(N2CCCCCC2)c1 (stereo not drawn) [Cpd. 111, 3-{5-[({[2-(azepan-1-yl)-4-methoxyphenyl](5-methylfuran-2-yl)methyl}carbamoyl)methyl]-1H-indol-1-yl}propanoic acid] | 10 to 100 nM | – | 100 to 1000 nM | 80 °C
14 | Cc1ccc(C(NC(=O)C2(c3ccc4[nH]cc(CO)c4c3)CC2)c2ccc(C)o2)c(N2CCCCC2)c1 (stereo not drawn) [Cpd. 89, 1-[3-(hydroxymethyl)-1H-indol-5-yl]-N-{[4-methyl-2-(piperidin-1-yl)phenyl](5-methylfuran-2-yl)methyl}cyclopropane-1-carboxamide] | < 10 nM | – | < 100 nM | 112 °C
15 | Cc1ccc(C(NC(=O)Cc2ccc3[nH]c(=O)cc(C)c3c2)c2ccccc2)c(N2CCOCC2)c1 (stereo not drawn) [Cpd. 8, N-{[4-methyl-2-(morpholin-4-yl)phenyl](phenyl)methyl}-2-(4-methyl-2-oxo-1,2-dihydroquinolin-6-yl)acetamide] | – | 100 to 1000 nM | – | –
16 | Cc1ccc(C(NC(=O)Cc2ccc3c(CO)c[nH]c3c2)c2ccc(C)o2)c(N2CCCCC2)c1 (stereo not drawn) [Cpd. 88, 2-[3-(hydroxymethyl)-1H-indol-6-yl]-N-{[4-methyl-2-(piperidin-1-yl)phenyl](5-methylfuran-2-yl)methyl}acetamide] | 10 to 100 nM | – | < 100 nM | 92 °C
17 | Cc1ccc(C(NC(=O)Cc2ccc3c(c2)C(C)(O)C(=O)N3)c2ccc(C)o2)c(N2CCCCC2)c1 (stereo not drawn) [Cpd. 47, 2-(3-hydroxy-3-methyl-2-oxo-2,3-dihydro-1H-indol-5-yl)-N-{[4-methyl-2-(piperidin-1-yl)phenyl](5-methylfuran-2-yl)methyl}acetamide] | 10 to 100 nM | – | 100 to 1000 nM | 112 °C
18 | Cc1ccc(C(NC(=O)Cc2ccc3[nH]cc(CN4CCOCC4)c3c2)c2ccc(C)o2)c(N2CCCCC2)c1 (stereo not drawn) [Cpd. 94, N-{[4-methyl-2-(piperidin-1-yl)phenyl](5-methylfuran-2-yl)methyl}-2-[3-(morpholin-4-ylmethyl)-1H-indol-5-yl]acetamide] | 10 to 100 nM | – | < 100 nM | 100 °C
